Like-named read-outs stand apart in the source and are kept apart here.
Legend:
[1] = test system: L. infantum axenic amastigotes; experiment: Antileishmanial activity on L. infantum axenic amastigotes (luciferase assay); type: cell-based; conditions: Leishmania infantum, 48 h, read-out: EC50 L. infantum Axenic Ama.
Procedure: L. infantum promastigotes were harvested in logarithmic phase of growth by centrifugation at 900× g for 10 min. The supernatant was removed carefully and was replaced by the same volume of RPMI 1640 complete medium at pH 5.4 and incubated for 24 h at 24 °C. The acidified promastigotes were then incubated for 24 h at 37 °C in a ventilated flask to transform them into axenic amastigotes. The amastigote stage was checked both by electron microscopy (short flagellum with small bulbous tip extending beyond a spherical cell body) and RT-PCR to confirm the overexpression of ATG8 and amastin genes in amastigotes, relative to promastigotes. The effects of the tested compounds on the growth of L. infantum axenic amastigotes were assessed as follows. L. infantum amastigotes were incubated at a density of 2 × 10^6 parasites/mL in sterile 96-well plates with various concentrations of compounds dissolved in DMSO (final concentration less than 0.5% v/v), in duplicate. Appropriate controls treated with DMSO, amphotericin B, miltefosine, fexinidazole and fexinidazole sulfone were added to each set of experiments. After a 48 h incubation period at 37 °C, each plate-well was then microscopically examined to detect any precipitate formation.
(§1) • Luciferase activity and determination of EC50 were performed as above.

[2] = test system: L. donovani promastigotes; experiment: Antileishmanial activity against L. donovani promastigotes (MTT assay); type: cell-based; conditions: Leishmania donovani, 72 h, read-out: EC50 L. donovani Pro.
Procedure: The Leishmania species used in this study were L. donovani (MHOM/IN/00/DEVI) purchased from CNR Leishmania (Montpellier, France). Leishmania promastigote forms were grown in Schneider’s Drosophila medium (Life Technologies, Saint-Aubin, France) supplemented with 100 U/mL penicillin, 100 µg/mL streptomycin, 2 mM L-glutamine and 20% FCS (Life Technologies, Saint-Aubin, France) at 27 °C. The in vitro evaluation of the tested compound’s antileishmanial activity on promastigote forms was carried out by MTT assay according to the Mosmann protocol with some modifications. Briefly, promastigotes in log-phase were incubated at an average density of 10^6 parasites/mL in sterile 96-well plates with various concentrations of compound dissolved in DMSO (final concentration less than 0.5% v/v), in duplicate. Appropriate controls treated with DMSO, Miltefosine, Amphotericin B, Fexinidazole, and Fexinidazole sulfone (reference drugs purchased from Sigma-Aldrich, Saint-Louis, Missouri, USA) were added to each set of experiments. After a 72 h incubation period at 27 °C, parasitic metabolic activity was determined. Each plate-well was then microscope-analyzed to detect any precipitate formation. 20 µL of MTT (3-(4,5-dimethylthiazol-2-yl)-2,5-diphenyltetrazolium bromide) (Sigma-Aldrich, Saint-Louis, Missouri, USA) solution (5 mg/mL in PBS) were added to each well and incubated for 4 h at 27 °C. The enzyme reaction was then stopped by addition of 100 µL of 50% isopropanol–10% sodium dodecyl sulfate. Plates were shaken vigorously at 300 rpm for 10 min. The absorbance was measured at 570 nm in a BIO-TEK Elx808 (Biotek, Colmar, France) absorbance microplate reader. […] EC50 values were calculated by non-linear regression analysis processed dose-response curves, using TableCurve 2D V5.0 software (Systat Software Inc. (Palo Alto, CA, USA)). EC50 values represent the mean value calculated from at least three separate experiments.

[3] = Cytotoxicity on THP-1 cell line (MTT); type: cell-based; conditions: human, THP-1 cells, THP1 cell line
Procedure: The plates were incubated for 72 h at 37 °C. Each well plate was then microscope-examined for detecting possible precipitate formation before the medium was aspirated from the wells. 100 µL of MTT solution (0.5 mg/mL in medium) were then added to each well. Cells were incubated for 2 h at 37 °C. […] Plates were shaken vigorously (300 rpm) for 10 min. The absorbance was measured at 570 nm using a BIO-TEK ELx808 Absorbance Microplate Reader. DMSO was used as blank and doxorubicin (purchased from Sigma Aldrich) as positive control. Cell viability was calculated as percentage of control (cells incubated with DMSO). […] (Palo Alto, CA, USA). CC50 values represent the mean value calculated from three separate experiments.

[4] = test system: L. infantum intracellular amastigotes; experiment: Antileishmanial activity on L. infantum intracellular (intra-THP1 macrophage) amastigotes; type: cell-based; conditions: Leishmania infantum, THP-1; intramacrophage (THP1) amastigotes, 120 h; read-out: EC50 L. infantum Intra. Ama.
Procedure: The undifferentiated THP1 human monocyte cells (acute monocytic leukemia cell line purchased from ATCC, ref TIB-202) were grown in RPMI 1640 medium (Life Technologies, Saint-Aubin, France) supplemented with 10% FCS (Life Technologies, Saint-Aubin, France), 100 U/mL penicillin, 100 µg/mL streptomycin and 2 mM L-glutamine at 37 °C, 5% CO2. The culture was maintained between 3.10^5 and 1.10^6 cells/mL. The in vitro evaluation of the antileishmanial activity on intracellular amastigote forms of the tested compound was assessed as below.
Briefly, 200 μL of THP-1 cells with Phorbol 12-Myristate 13-Acetate (final concentration 50 ng/mL) were seeded in 96-well plates at an average density of 0.77 × 10^5 cells/mL and incubated for 96 h at 37 °C, 5% CO2. Promastigotes were centrifuged at 3000 rpm for 10 min and the supernatant replaced by the same volume of complete RPMI pH 5.4 and incubated for 24 h at 27 °C. Differentiated THP-1 cells were then infected by acidified promastigotes with an infection ratio of twenty parasites for one macrophage and incubated for 24 h at 37 °C, 5% CO2.
as §1

[5] = test system: L. infantum promastigotes; experiment: Antileishmanial activity against L. infantum promastigotes (luciferase assay); type: cell-based; conditions: Leishmania infantum, 72 h, read-out: EC50 L. infantum Pro.
Procedure: L. infantum promastigotes (MHOM/MA/67/ITMAP-263, CNR Leishmania, Montpellier, France, expressing luciferase activity) were used in the following tests. The effects of the tested compounds on the growth of L. infantum promastigotes were assessed by Luciferase Assay. Briefly, promastigotes in log-phase in RPMI 1640 medium supplemented with 10% fetal calf serum (FCS), 2 mM L-glutamine and antibiotics (100U/mL penicillin, 100 µg/mL streptomycin and 50µg/mL geneticin), were incubated at an average density of 10^6 parasites/mL (100 µL/well) in sterile 96-well plates with various concentrations of compounds dissolved in DMSO (final concentration less than 0.5% v/v), in duplicate. Appropriate controls (100 µL/well) treated by DMSO and reference drugs (purchased for the majority from Sigma Aldrich) were added to each set of experiments. After a 72 h incubation period at 24 °C, each plate-well was then microscope-examined for detecting possible precipitate formation. To estimate the luciferase activities of promastigotes, 80 µL of each well are transferred in white 96-well plates, Steady Glow reagent (Promega) was added according to manufacter’s instructions, and plates were incubated for 2 min. The luminescence was measured in a FLUOstar Omega (BMG Labtech, Champigny-sur-Marne, France). […] EC50 were calculated by non-linear regression analysis processed on dose–response curves, using TableCurve 2D V5 software.

[6] = test system: T. b. brucei BSF trypomastigotes; experiment: Antitrypanosomal evaluation on T. b. brucei BSF trypomastigotes (Alamar Blue); type: cell-based; conditions: Trypanosoma brucei, trypomastigote blood stream form
Procedure: The effects of the tested compounds on the growth of T. b. brucei were assessed by Alamar Blue® assay described by Räz et al. T. b. brucei AnTat 1.9 (IMTA, Antwerpen, Belgium) was cultured in MEM with Earle’s salts, supplemented according to the protocol of Baltz et al. with the following modifications: 0.5 mM mercaptoethanol (Sigma Aldrich®, France), 1.5 mM L-cysteine (Sigma Aldrich®), 0.05 mM bathocuproïne sulfate (Sigma Aldrich®) and 20% heat-inactivated horse serum (Gibco®, France), at 37 °C and 5% CO2. They were incubated at an average density of 2000 parasites/100 µL in sterile 96-wells plates (Fisher®, France) with various concentrations of compounds dissolved in DMSO, in duplicate. Appropriate controls suramin, treated with sterile water, and fexinidazole, treated with DMSO on sterile water (reference drugs purchased from Sigma Aldrich, France and Fluorochem, UK) were added to each set of experiments. After a 69 h incubation period at 37 °C, 10 µL of the viability marker Alamar Blue® (Fisher, France) were then added to each well, and the plates were incubated for 5 h. The plates were read in a ENSPIRE microplate reader (PerkinElmer, Waltham, MA, USA) using an excitation wavelength of 530 nm and an emission wavelength of 590 nm. […] EC50 were calculated by nonlinear regression analysis processed on dose-response curves, using GraphPad Prism software (USA). EC50 values were calculated from three separate experiments.

[7] = Cytotoxicity evaluation on HepG2 cell line (MTT); type: cell-based; conditions: human, HepG2 cells
Procedure: The tested molecules’ cytotoxicity was assessed according to the method of Mosmann with slight modifications. […] Triplicate assays were performed for each sample. Each plate-well was then microscope-examined to detect possible precipitate formation before the medium was aspirated from the wells. 100 µL of MTT (3-(4,5-dimethyl-2-thiazolyl)-2,5-diphenyl-2H-tetrazolium bromide) solution (0.5 mg/mL in medium without FCS) were then added to each well. […] Plates were shaken vigorously (700 rpm) for 10 min. The absorbance was measured at 570 nm with 630 nm as reference wavelength using a BIO-TEK ELx808 Absorbance Microplate Reader. DMSO was used as blank and doxorubicin (purchased from Sigma Aldrich) as positive control. Cell viability was calculated as percentage of control (cells incubated without compound). […] (Palo Alto, CA, USA)). CC50 values represent the mean value calculated from three separate experiments.

Structure (SMILES)	EC50 [1] [µM]	EC50 [2] [µM]	CC50 at 72 h [3] [µM]	EC50 [4] [µM]	EC50 [5] [µM]	melting point [°C]	EC50 ([2]; promastigotes, MTT) [µM]	EC50 [6] [µM]	CC50 at 72 h [7] [µM]
C[C@@H]1[C@H](O)[C@@H](C)/C=C/C=C/C=C/C=C/C=C/C=C/C=C/[C@H](O[C@@H]2O[C@H](C)[C@@H](O)[C@H](N)[C@@H]2O)C[C@@H]2O[C@](O)(C[C@@H](O)C[C@@H](O)[C@H](O)CC[C@@H](O)C[C@@H](O)CC(=O)O[C@H]1C)C[C@H](O)[C@H]2C(=O)O [Amphotericin B, reference compound]	0.08 ± 0.02	0.07 ± 0.01	12.1 ± 1.3	0.06 ± 0.01	0.04 ± 0.01	–	–	–	–
O=[N+]([O-])c1c(CS(=O)(=O)c2ccc(O)cc2)nc2c(Br)cc(Cl)cn12 [Compound 2c, 4-{[(8-Bromo-6-Chloro-3-Nitroimidazo[1,2-a]pyridin-2-yl)methyl]sulfonyl}phenol]	> 5	–	> 100	–	> 100	242	> 3.1	0.4 ± 0.03	> 3.9
O=[N+]([O-])c1c(CS(=O)(=O)CCC(F)(F)F)nc2c([S+]([O-])c3ccc(Cl)cc3)cc(Cl)cn12 (stereo not drawn) [Compound 6a, 6-Chloro-8-[(4-Chlorophenyl)sulfinyl]-3-Nitro-2-[(3,3,3-Trifluoropropylsulfonyl)methyl] imidazo[1,2-a]pyridine]	5 ± 0.1	–	> 100	3.3 ± 0.2	7.4 ± 0.4	221	1.9 ± 0.3	–	> 5
Cn1c([N+](=O)[O-])cnc1COc1ccc(S(C)(=O)=O)cc1 [Fexinidazole sulfone, reference compound]	4.3 ± 0.1	–	> 100	17.8 ± 1.4	1.1 ± 0.1	–	1.2 ± 0.2	–	–
CCCCCCCCCCCCCCCCOP(=O)([O-])OCC[N+](C)(C)C [Miltefosine, reference compound]	0.3 ± 0.02	–	28.1 ± 3.4	0.4 ± 0.14	18.2 ± 0.5	–	–	–	–
Cc1ccc(C(=O)Nc2ccc(S(=O)(=O)O)c3cc(S(=O)(=O)O)cc(S(=O)(=O)O)c23)cc1NC(=O)c1cccc(NC(=O)Nc2cccc(C(=O)Nc3cc(C(=O)Nc4ccc(S(=O)(=O)O)c5cc(S(=O)(=O)O)cc(S(=O)(=O)O)c45)ccc3C)c2)c1 [Suramin, reference compound]	–	–	–	–	–	–	–	0.08 ± 0.04	> 100
